Measured values reported in ChEMBL document CHEMBL1125176, “Synthesis of structural analogues of lyngbyatoxin A and their evaluation as activators of protein kinase C” (J Med Chem, 1991).

Biological target: Protein kinase C (PKC) (Homo sapiens) (UniProt O94806+P41743+P17252+P05129+Q05655+P05771+Q05513+Q02156+P24723+Q15139+Q04759)
Assay: Activation of partially purified HeLa cell protein kinase C, 32P incorporation into calf thymus histone(III-S).

Structure (SMILES): CC(C)[C@H]1C(=O)N[C@H](CO)Cc2c[nH]c3cccc(c23)N1C
- Activity (pM min-1 (mg of protein)-1): 454

Structure (SMILES): CCCCCCCCCCCCCC(=O)O[C@@H]1[C@@H](C)[C@@]2(O)[C@@H](C=C(CO)C[C@]3(O)C(=O)C(C)=C[C@@H]23)[C@@H]2C(C)(C)[C@]12OC(C)=O
- Activity (pM min-1 (mg of protein)-1): 899

Structure (SMILES): CC(C)[C@H]1C(=O)N[C@H](CO)Cc2c[nH]c3c(CCCCO[Si](C)(C)C(C)(C)C)ccc(c23)N1C
- Activity (pM min-1 (mg of protein)-1): 703

Structure (SMILES): CC(C)[C@H]1C(=O)N[C@@H](CO)Cc2c[nH]c3c(CCCCO)ccc(c23)N1C
- Activity (pM min-1 (mg of protein)-1): 163

Structure (SMILES): CCCCCCc1ccc2c3c(c[nH]c13)C[C@@H](CO)NC(=O)[C@H](C(C)C)N2C
- Activity (pM min-1 (mg of protein)-1): 606

Structure (SMILES): CC(C)[C@H]1C(=O)N[C@@H](CO)Cc2c[nH]c3c(CCCCO[Si](C)(C)C(C)(C)C)ccc(c23)N1C
- Activity (pM min-1 (mg of protein)-1): 403

Structure (SMILES): CC(C)=CCCCc1ccc2c3c(c[nH]c13)C[C@H](CO)NC(=O)[C@H](C(C)C)N2C
- Activity (pM min-1 (mg of protein)-1): 415

Structure (SMILES): CC(C)[C@H]1C(=O)N[C@H](CO)Cc2c[nH]c3c(CCCCO)ccc(c23)N1C
- Activity (pM min-1 (mg of protein)-1): 256

Structure (SMILES): CC(C)=CCCCc1ccc2c3c(c[nH]c13)C[C@@H](CO)NC(=O)[C@H](C(C)C)N2C
- Activity (pM min-1 (mg of protein)-1): 763
